Results as given in patent US20250206760A1, “NITROGEN-CONTAINING HETEROCYCLIC COMPOUND, PREPARATION METHOD THEREFOR, AND PHARMACEUTICAL APPLICATION THEREOF” (Jiangsu Hengrui Pharmaceuticals Co., Ltd., priority 2022, published 2025).

Legend:
Type in all cases: cell-based
[1] = test system: HER2 wild-type Ba/F3 cells; test: Ba/F3 cell proliferation assay, HER2 wild-type; conditions: Mus musculus, BaF3, 72 h, Celltiter-Glo cell viability; for GI50: read-out: HER2 WT/BaF3 GI50; for Emax: read-out: HER2 WT/BaF3 Imax %
Protocol: (§1) EGFR wild-type Ba/F3 cells (Cobioer, Cat. No. CBP73110) in the logarithmic growth phase were seeded into a 96-well plate at 2.5×10^3 cells/[…] in a growth medium, and HER2 wild-type Ba/F3 cells (Cobioer, Cat. No. CBP73110) or HER2 A775_G776insYVMA mutant Ba/F3 (Cobioer, Cat. No. CBP73184) in the logarithmic growth phase were seeded into a 96-well plate at 5×10^3 cells/100 μL in a growth medium.
(§2) The plates were placed in a cell incubator at 37° C. overnight. The compound diluted in 3-fold gradient with a medium was added to the plates at 100 μL/well the next day. All treatments were performed in triplicate. The plates were cultured in the cell incubator at 37° C. for another 72 h. Celltiter-Glo Luminescent cell viability assay was performed.
(§3) The cell proliferation rate corresponding to each well was calculated according to the following formula: proliferation %=(test compound well G3-GO average value)/(DMSO control well G3 average value -GO average value)×100. According to the corresponding proliferation rate and concentration of each gradient concentration well, a gradient curve of cell proliferation was fitted using Prism Graphpad software, and GI50 (GI50 is defined as the concentration of a compound corresponding to the cell proliferation inhibition rate of 50%) of the compound was calculated.

[2] = test system: HER2 A775_G776insYVMA mutant Ba/F3; test: Ba/F3 cell proliferation assay, HER2 A775_G776insYVMA mutant; conditions: Mus musculus, BaF3, 72 h, Celltiter-Glo cell viability; for GI50: read-out: HER2 A775_G776 ins YVMA/BaF3 GI50; for Emax: read-out: HER2 A775_G776 ins YVMA/BaF3 Imax %
Protocol: as §1, §2, §3

[3] = test system: EGFR wild-type Ba/F3 cells; test: Ba/F3 cell proliferation assay, EGFR wild-type; conditions: 72 h, Celltiter-Glo cell viability; for GI50: Mus musculus, BaF3, read-out: EGFR WT/BaF3 GI50
Protocol: as §1, §2, §3

With C=CC(=O)N1[C@@H]2CC[C@H]1C[C@H](Oc1cc3c(Nc4ccc(Oc5ccc6c(c5)ncn6C)c(C)c4F)ncnc3cc1OC)C2 [Example 15, 1-(exo-3-((4-((2-Fluoro-3-methyl-4-((1-methyl-1H-benzo[d]imidazol-5-yl)oxy)phenyl)amino)-7-methoxyquinazolin-6-yl)oxy)-8-azabicyclo[3.2.1]octan-8-yl)prop-2-en-1-one] the GI50 [1] was 14.9 nM, the Emax [1] was 100% and the GI50 [2] was 19.4 nM. For the same molecule, the Emax [2] was 100%.

C=CC(=O)N1[C@@H]2CC[C@H]1C[C@H](Oc1ccc3ncnc(Nc4ccc(Oc5ccc6c(c5)ncn6C)c(C)c4F)c3c1)C2 [Example 19, 1-(exo-3-((4-((2-Fluoro-3-methyl-4-((1-methyl-1H-benzo[d]imidazol-5-yl)oxy)phenyl)amino)quinazolin-6-yl)oxy)-8-azabicyclo[3.2.1]octan-8-yl)prop-2-en-1-one] was tested, and the GI50 [1] was 14.9 nM, the Emax [1] was 100% and the GI50 [2] was 27 nM. The Emax [2] was 100%.

C=CC(=O)N1[C@@H]2CC[C@H]1C[C@H](Oc1ccc3ncnc(Nc4ccc(Oc5cc6ncnn6cn5)c(C)c4)c3c1)C2 [Example 8, 1-(exo-3-((4-((4-([1,2,4]Triazolo[1,5-c]pyrimidin-7-yloxy)-3-methylphenyl)amino)quinazolin-6-yl)oxy)-8-azabicyclo[3.2.1]octan-8-yl)prop-2-en-1-one] showed a GI50 [1] of 6.3 nM, an Emax [1] of 100% and a GI50 [2] of 15.7 nM. For the same molecule, the Emax [2] was 100%.

C=CC(=O)N1[C@@H]2CC[C@H]1C[C@H](Oc1ccc3ncnc(Nc4ccc(Oc5ccn6ncnc6c5)c(C)c4)c3c1)C2 [Example 9, 1-(exo-3-((4-((4-([1,2,4]Triazolo[1,5-a]pyridin-7-yloxy)-3-methylphenyl)amino)quinazolin-6-yl)oxy)-8-azabicyclo[3.2.1]octan-8-yl)prop-2-en-1-one] gave a GI50 [1] of 13.5 nM, an Emax [1] of 100% and a GI50 [2] of 13.8 nM. The Emax [2] was 100%.

With C=CC(=O)N1[C@@H]2CC[C@H]1C[C@H](Oc1cc3c(Nc4ccc(Oc5ccc6c(c5)ncn6C)c(C)c4)ncnc3cn1)C2 [Example 28, 1-(exo-3-((4-((3-Methyl-4-((1-methyl-1H-benzo[d]iimidazol-5-yl)oxy)phenyl)amino)pyrido[3,4-d]pyrimidin-6-yl)oxy)-8-azabicyclo[3.2.1]octan-8-yl)prop-2-en-1-one] the GI50 [1] was 18.1 nM, the Emax [1] was 100% and the “EGFR WT/BaF3 Imax %” value [3] was −1.76%. For the same molecule, the GI50 [3] was over 10000 nM.

With C=CC(=O)N1[C@@H]2CC[C@H]1C[C@@H](Oc1cc3c(Nc4ccc(Oc5ccn6ncnc6c5)c(C)c4F)ncnc3cn1)C2 [Example 20, 1-(endo-3-((4-((4-([1,2,4]Triazolo[1,5-a]pyridin-7-yloxy)-2-fluoro-3-methylphenyl)amino)pyrido[3,4-d]pyrimidin-6-yl)oxy)-8-azabicyclo[3.2.1]octan-8-yl)prop-2-en-1-one] the GI50 [1] was 13.2 nM, the Emax [1] was 100% and the “EGFR WT/BaF3 Imax %” value [3] was 100%. For the same molecule, the GI50 [3] was 3510 nM, the GI50 [2] was 15.5 nM and the Emax [2] was 100%.

C=CC(=O)N1[C@@H]2CC[C@H]1C[C@H](Oc1cc3c(Nc4ccc(Oc5ccc6c(c5)ncn6C)c(C)c4F)ncnc3cn1)C2 [Example 27, 1-(exo-3-((4-((2-Fluoro-3-methyl-4-((1-methyl-1H-benzo[d]iimidazol-5-yl)oxy)phenyl)amino)pyrido[3,4-d]pyrimidin-6-yl)oxy)-8-azabicyclo[3.2.1]octan-8-yl)prop-2-en-1-one] showed a GI50 [1] of 12.5 nM and an Emax [1] of 100%.

In the case of C=CC(=O)N1[C@@H]2CC[C@H]1C[C@@H](Oc1cc3c(Nc4ccc(Oc5ccn6ncnc6c5)c(C)c4)ncnc3cn1)C2 [Example 16, 1-(endo-3-((4-((4-([1,2,4]Triazolo[1,5-a]pyridin-7-yloxy)-3-methylphenyl)amino)pyrido[3,4-d]pyrimidin-6-yl)oxy)-8-azabicyclo[3.2.1]octan-8-yl)prop-2-en-1-one], the GI50 [1] is reported as 9 nM, the Emax [1] is reported as 100% and the “EGFR WT/BaF3 Imax %” value [3] is reported as 73%. It also gave a GI50 [3] of 7350 nM, a GI50 [2] of 15.7 nM and an Emax [2] of 100%.

C=CC(=O)N1[C@@H]2CC[C@H]1C[C@H](Oc1cc3c(Nc4ccc(Oc5ccn6ncnc6c5)c(C)c4)ncnc3cc1OC)C2 [Example 6, 1-(exo-3-((4-((4-([1,2,4]Triazolo[1,5-a]pyridin-7-yloxy)-3-methylphenyl)amino)-7-methoxyquinazolin-6-yl)oxy)-8-azabicyclo[3.2.1]octan-8-yl)prop-2-en-1-one] was tested, and the GI50 [1] was 25.2 nM, the Emax [1] was 100% and the GI50 [2] was 21.4 nM. It also gave an Emax [2] of 100%.

In the case of C=CC(=O)N1[C@@H]2CC[C@H]1C[C@H](Oc1cc3c(Nc4ccc(Oc5ccn6ncnc6c5)c(C)c4F)ncnc3cn1)C2 [Example 21, 1-(exo-3-((4-((4-([1,2,4]Triazolo[1,5-a]pyridin-7-yloxy)-2-fluoro-3-methylphenyl)amino)pyrido[3,4-d]pyrimidin-6-yl)oxy)-8-azabicyclo[3.2.1]octan-8-yl)prop-2-en-1-one], the GI50 [1] is reported as 5.3 nM, the Emax [1] is reported as 100% and the “EGFR WT/BaF3 Imax %” value [3] is reported as 100%. The GI50 [3] was 913 nM, the GI50 [2] was 10.4 nM and the Emax [2] was 100%.

Molecule C=CC(=O)N1[C@@H]2CC[C@H]1C[C@@H](Oc1cc3c(Nc4ccc(Oc5ccn6ncnc6c5)c(C)c4F)ncnc3cc1OCC)C2 [Example 17, 1-(endo-3-((4-((4-([1,2,4]Triazolo[1,5-a]pyridin-7-yloxy)-2-fluoro-3-methylphenyl)amino)-7-ethoxyquinazolin-6-yl)oxy)-8-azabicyclo[3.2.1]octan-8-yl)prop-2-en-1-one] has a GI50 [1] of 5.1 nM, an Emax [1] of 100% and a GI50 [2] of 13.9 nM. For the same molecule, the Emax [2] was 100%.

Molecule Cc1cc(Nc2ncnc3ccc(NC4=NC(C)(C)CO4)cc23)ccc1Oc1ccn2ncnc2c1 [Tucatinib, tucatinib, reference compound] has an Emax [2] of 100%.

With C=CC(=O)N1[C@@H]2CC[C@H]1C[C@@H](Oc1ccc3ncnc(Nc4ccc(Oc5ccn6ncnc6c5)c(C)c4)c3c1)C2 [Example 1, 1-(endo-3-((4-((4-([1,2,4]Triazolo[1,5-a]pyridin-7-yloxy)-3-methylphenyl)amino)quinazolin-6-yl)oxy)-8-azabicyclo[3.2.1]octan-8-yl)prop-2-en-1-one] the GI50 [1] was 4.1 nM, the Emax [1] was 100% and the “EGFR WT/BaF3 Imax %” value [3] was 97%. The GI50 [3] was 3740 nM, the GI50 [2] was 3.4 nM and the Emax [2] was 100%.

For C=CC(=O)N1[C@@H]2CC[C@H]1C[C@H](Oc1cc3c(Nc4ccc(Oc5ccn6ncnc6c5)c(C)c4F)ncnc3cc1OC)C2 [Example 13, 1-(exo-3-((4-((4-([1,2,4]Triazolo[1,5-a]pyridin-7-yloxy)-2-fluoro-3-methylphenyl)amino)-7-methoxyquinazolin-6-yl)oxy)-8-azabicyclo[3.2.1]octan-8-yl)prop-2-en-1-one], the GI50 [1] was 4.8 nM, the Emax [1] was 100% and the GI50 [2] was 8.2 nM. It also gave an Emax [2] of 100%.

C=CC(=O)N1[C@@H]2CC[C@H]1C[C@@H](Oc1ccc3ncnc(Nc4ccc(Oc5ccc6c(c5)ncn6C)c(C)c4)c3c1)C2 [Example 2, 1-(endo-3-((4-((3-Methyl-4-((1-methyl-1H-benzo[d]imidazol-5-yl)oxy)phenyl)amino)quinazolin-6-yl)oxy)-8-azabicyclo[3.2.1]octan-8-yl)prop-2-en-1-one] was tested, and the GI50 [1] was 18.9 nM, the Emax [1] was 100% and the “EGFR WT/BaF3 Imax %” value [3] was 99%. The GI50 [3] was 2300 nM, the GI50 [2] was 24 nM and the Emax [2] was 100%.
